In patent publication US11358962B2, “2-hetaryl imidazol[1,2-a]pyridine derivatives” (Hoffmann-La Roche Inc., priority 2013, dated 2022):

These compounds were tested on native tau aggregates (assay: TAU radioligand in vitro displacement assay ([3H]T808, autoradiography on human AD brain sections)). Settings: compound 10 nM, radioligand [3H]T808 10 nM.
Type: binding
Text: TAU Radioligand-In-Vitro Displacement Assay
This in vitro binding assay assesses the affinity of compounds for native tau aggregates.
AD human brains are purchased from Banner Sun Health Research Institute (Sun City, Ariz., USA). Pathological diagnosis of AD is made according to standard NIA-Reagan Institute criteria based on neuropathological data. The radioligand [^3H]T808 was synthesized in-house ([^3H]-2-[4-(2-Fluoro-ethyl)-piperidin-1-yl]-benzo[4,5]imidazo[1,2-a]pyrimidine, radiochemical purity 99.0%). As a reference cold T808 is used (2-[4-(2-Fluoro-ethyl)-piperidin-1-yl]-benzo[4,5]imidazo[1,2-a]pyrimidine). For the autoradiography FujiFilm Imaging Plates (BAS-IP TR 2025) are exposed to the sections and read with a FujiFilm IP reader (BAS-5000).
Ten μm thick human AD brain sections are generated with a cryostat (Leica CM3050) at −17° C. chamber temperature and −15° C. object temperature. Sections are transferred to Histobond+ microscope slides (Marienfeld Laboratory Glasware). After drying for 3 hours at room temperature the sections are stored at −20° C. The sections are incubated with the radioligand (10 nM) and the respective cold compound (at various concentrations) in 50 mM Tris buffer, pH 7.4 at room temperature for 30 min. After washing 3× 10 min at 4° C. in 50 mM Tris buffer, pH 7.4 and 3 quick dips in H2O dist. at 4° C. the sections are dried at 4° C. for 3 h. The sections are placed in a FujiFilm Cassette (BAS 2025), exposed with an Imaging Plate for five days and afterwards scanned with a resolution of […].
The signal intensity (Dens−PSL/mm2) in the region of interest (ROI) of the autoradiogram is quantified with the software MCID analysis (version 7.0, Imaging Research Inc.). The specific binding (SB) of [^3H]T808 binding in absence or in presence of a compound is calculated by subtracting the non-specific binding signal in the white matter, thus yielding SB[3H]T808 only and SBcompound. The % displacement by the various compounds is calculated as following: % displacement=100−(SBcompound/SB[3H]T808 only)*100. Validation Data
In each experiment cold T808 is used as a positive internal control. Co-incubation of equimolar amounts of hot and cold T808 is expected to reduce specific binding by approximately 50%.

Row | Compound | % displacement of [3H]T808 (10 nM) at 10 nM
1 | Cc1ccc(-c2cn3ccc(N4CCC4)cc3n2)cc1 [Example 54, 7-Azetidin-1-yl-2-p-tolyl-imidazo[1,2-a]pyridine] | 30%
2 | Cc1cccc(-c2cn3ccc(N4CCC4)cc3n2)c1 [Example 55, 7-Azetidin-1-yl-2-m-tolyl-imidazo[1,2-a]pyridine] | 27%
3 | FCCC1CCN(c2ccn3cc(-c4ccccc4)nc3c2)CC1 [Example 58, 7-[4-(2-Fluoro-ethyl)-piperidin-1-yl]-2-phenyl-imidazo[1,2-a]pyridine] | 12%
4 | COc1ccc(-c2cn3ccc(N4CCCCC4)cc3n2)cc1 [Example 12, 2-(4-Methoxy-phenyl)-7-piperidin-1-yl-imidazo[1,2-a]pyridine] | 30%
5 | CNc1ccn2cc(-c3sccc3Cl)nc2c1 [Example 112, N-[2-(3-Chloro-thiophen-2-yl)-imidazo[1,2-a]pyridin-7-yl]-methyl-amine] | 6%
6 | CNc1ccn2cc(-c3sccc3Br)nc2c1 [Example 111, N-[2-(3-Bromo-thiophen-2-yl)-imidazo[1,2-a]pyridin-7-yl]-methyl-amine] | 17%
7 | CNc1ccn2cc(-c3ccc(OC)c(F)c3)nc2c1 [Example 95, N-[2-(3-Fluoro-4-methoxy-phenyl)-imidazo[1,2-a]pyridin-7-yl]-methyl-amine] | 55%
8 | 2-Benzo[1,3]dioxol-5-yl-7-[4-(2-fluoro-ethyl)-piperidin-1-yl]-imidazo[1,2-a]pyridine [Example 21] | 7%
9 | CN(C)c1ccc(-c2cn3ccc(N4CCC(F)CC4)cc3n2)cc1 [Example 41, {4-[7-(4-Fluoro-piperidin-1-yl)-imidazo[1,2-a]pyridin-2-yl]-phenyl}-dimethyl-amine] | 18%
10 | FC1CCN(c2ccn3cc(-c4ccc5c(c4)OCO5)nc3c2)CC1 [Example 68, 2-Benzo[1,3]dioxol-5-yl-7-(4-fluoro-piperidin-1-yl)-imidazo[1,2-a]pyridine] | 25%
11 | CNc1ccn2cc(-c3cccc(C(=O)OC)c3)nc2c1 [Example 122, Methyl 3-[7-(methylamino)imidazo[1,2-a]pyridin-2-yl]benzoate] | 20%
12 | COc1ccc(-c2cn3ccc(N4CCCC4)cc3n2)cc1 [Example 11, 2-(4-Methoxy-phenyl)-7-pyrrolidin-1-yl-imidazo[1,2-a]pyridine] | 27%
13 | CNc1ccn2cc(-c3ccc(N(C)Cc4ccccc4)cc3)nc2c1 [Example 110, 2-(4-(benzyl(methyl)amino)phenyl)-N-methylimidazo[1,2-a]pyridin-7-amine] | 14%
14 | FCCNc1ccn2cc(-c3ccccc3)nc2c1 [Example 1, N-(2-Fluoroethyl)-2-phenylimidazo[1,2-a]pyridin-7-amine 2,2,2-trifluoroacetate] | 40%
15 | FCCOCCOc1ccc(-c2cn3ccc(N4CCC4)cc3n2)cc1 [Example 144, 7-(azetidin-1-yl)-2-(4-(2-(2-fluoroethoxy)ethoxy)phenyl)imidazo[1,2-a]pyridine] | 27%
16 | CN(C)c1ccn2cc(-c3ccc(OCCF)cc3)nc2c1 [Example 17, {2-[4-(2-Fluoro-ethoxy)-phenyl]-imidazo[1,2-a]pyridin-7-yl}-dimethyl-amine] | 37%
17 | CNc1ccn2cc(-c3cc(C)ccc3O)nc2c1 [Example 128, 4-Methyl-2-(7-methylamino-imidazo[1,2-a]pyridin-2-yl)-phenol] | 34%
18 | Cc1ccc(-c2cn3ccc(NCCF)cc3n2)cc1C [Example 72, [2-(3,4-Dimethyl-phenyl)-imidazo[1,2-a]pyridin-7-yl]-(2-fluoro-ethyl)-amine] | 25%
19 | FC1CCN(c2ccn3cc(-c4ccc5c(c4)OCCO5)nc3c2)CC1 [Example 84, 2-(2,3-Dihydro-benzo[1, 4]dioxin-6-yl)-7-(4-fluoro-piperidin-1-yl)-imidazo[1,2-a]pyridine] | 26%
20 | COc1ccc(-c2cn3ccc(N4CCC(CCF)CC4)cc3n2)cc1 [Example 77, 7-[4-(2-Fluoro-ethyl)-piperidin-1-yl]-2-(4-methoxy-phenyl)-imidazo[1,2-a]pyridine] | 27%

Row | Compound | % displacement of [3H]T808 (10 nM) at 10 nM
21 | COc1ccc(-c2cn3ccc(N4CCC(F)CC4)cc3n2)cc1 [Example 14, 7-(4-Fluoro-piperidin-1-yl)-2-(4-methoxy-phenyl)-imidazo[1,2-a]pyridine] | 26%
22 | FCOc1ccc(-c2cn3ccc(N4CCC4)cc3n2)cc1 [Example 70, 7-Azetidin-1-yl-2-(4-fluoromethoxy-phenyl)-imidazo[1,2-a]pyridine] | 32%
23 | COc1ccc(-c2cn3ccc(N4CCC4)cc3n2)cc1 [Example 24, 7-Azetidin-1-yl-2-(4-methoxy-phenyl)-imidazo[1,2-a]pyridine] | 54%
24 | Cc1cccc(-c2cn3ccc(N4CCC(CCF)CC4)cc3n2)c1 [Example 85, 7-[4-(2-Fluoro-ethyl)-piperidin-1-yl]-2-m-tolyl-imidazo[1,2-a]pyridine] | 17%
25 | Cc1cccc(-c2cn3ccc(N4CCOCC4)cc3n2)c1 [Example 35, 7-Morpholin-4-yl-2-m-tolyl-imidazo[1,2-a]pyridine] | 27%
26 | CNc1ccn2cc(-c3cccc(OCF)c3)nc2c1 [Example 133, 2-(3-(fluoromethoxy)phenyl)-N-methylimidazo[1,2-a]pyridin-7-amine] | 40%
27 | CNc1ccn2cc(-c3cnn(C)c3)nc2c1 [Example 129, Methyl-[2-(1-methyl-1H-pyrazol-4-yl)-imidazo[1,2-a]pyridin-7-yl]-amine] | 50%
28 | Cc1ccc(-c2cn3ccc(NCCF)cc3n2)cc1 [Example 46, (2-Fluoro-ethyl)-(2-p-tolyl-imidazo[1,2-a]pyridin-7-yl)-amine] | 27%
29 | CNc1ccn2cc(-c3ccc(CO)cc3)nc2c1 [Example 89, [4-[7-(Methylamino)imidazo[1,2-a]pyridin-2-yl]phenyl]methanol acetic acid adduct] | 54%
30 | Oc1cccc(-c2cn3ccc(NCCF)cc3n2)c1 [Example 146, 3-(7-(2-fluoroethylamino)imidazo[1,2-a]pyridin-2-yl)phenol] | 33%
31 | Oc1ccc(-c2cn3ccc(NCCF)cc3n2)cc1 [Example 145, 4-(7-(2-fluoroethylamino)imidazo[1,2-a]pyridin-2-yl)phenol] | 29%
32 | CNc1ccn2cc(-c3cc(OC)cc(OC)c3)nc2c1 [Example 92, 2-(3,5-dimethoxyphenyl)-N-methylimidazo[1,2-a]pyridin-7-amine] | 25%
33 | Cc1ccc(-c2cn3ccc(N4CCC(F)CC4)cc3n2)cc1 [Example 57, 7-(4-Fluoro-piperidin-1-yl)-2-p-tolyl-imidazo[1,2-a]pyridine] | 20%
34 | CSc1ccc(-c2cn3ccc(NCCF)cc3n2)cc1 [Example 79, (2-Fluoro-ethyl)-[2-(4-methylsulfanyl-phenyl)-imidazo[1,2-a]pyridin-7-yl]-amine] | 20%
35 | Cc1ccc(-c2cn3ccc(N4CCOCC4)cc3n2)cc1 [Example 36, 7-Morpholin-4-yl-2-p-tolyl-imidazo[1,2-a]pyridine] | 23%
36 | FCCOc1ccc(-c2cn3ccc(NC4CC4)cc3n2)cc1 [Example 124, N-Cyclopropyl-2-[4-(2-fluoroethoxy)phenyl]imidazo[1,2-a]pyridin-7-amine] | 39%
37 | CN(CCF)c1ccn2cc(-c3ccccc3)nc2c1 [Example 2, N-(2-Fluoroethyl)-N-methyl-2-phenylimidazo[1,2-a]pyridin-7-amine] | 50%
38 | CNc1ccn2cc(-c3ccc(Cl)s3)nc2c1 [Example 127, N-[2-(5-Chloro-thiophen-2-yl)-imidazo[1,2-a]pyridin-7-yl]-methyl-amine] | 26%
39 | CNc1ccn2cc(-c3nc4ccccc4n3C)nc2c1 [Example 121, Methyl-[2-(1-methyl-1H-benzoimidazol-2-yl)-imidazo[1,2-a]pyridin-7-yl]-amine] | 19%

Same assay, conditions: compound 1 uM, radioligand [3H]T808 10 nM

Row | Compound | % displacement of [3H]T808 (10 nM) at 1 uM
40 | FCCNc1ccn2cc(-c3ccccc3)nc2c1 [Example 1, N-(2-Fluoroethyl)-2-phenylimidazo[1,2-a]pyridin-7-amine 2,2,2-trifluoroacetate] | 93%
41 | CN(CCF)c1ccn2cc(-c3ccccc3)nc2c1 [Example 2, N-(2-Fluoroethyl)-N-methyl-2-phenylimidazo[1,2-a]pyridin-7-amine] | 90%
